The values that follow are results of earlier work, collected in patent US6506938B1, “Process for the purifying of iopamidol” (Bracco International B.V., priority 1993, dated 2003).

Like-named read-outs stand apart in the source and are kept apart here.

For series [1] the following is noted: Boll. Chim. Farm., 120, 639, (1981).
The conditions of series [2]: British patent no. 1,472,050.

`C[C@H](O)C(=O)Nc1c(I)c(C(=O)NC(CO)CO)c(I)c(C(=O)NC(CO)CO)c1I` [Iopamidol, L-5-α-hydroxypropionylamino-2,4,6-triiodo-isophthalic acid bis-(1,3-dihydroxyisopropylamide)]: the solubility in benzene result in series [1] (benzene) was “practically insoluble”. The solubility in chloroform entry in series [1] (chloroform) is given as “practically insoluble”. Moreover, in series [1] (diethylether), the solubility in diethylether entry is “practically insoluble”. Moreover, the solubility in ethanol entry was “practically insoluble” in series [1] (ethanol) and “about 10%” in series [2] (ethanol, room temperature). Moreover, the figures for the solubility in methanol result in series [1] (methanol) and in series [2] (methanol) were “only slightly soluble” and “practically unlimited solubility”, respectively. Further, the figures for the solubility in water result in series [1] (water) and in series [2] (water) were “very soluble” and “dissolves very easily”, respectively.
